According to patent US8273708B2, “Methods of treatment of ocular surface pathologies” (priority 2004, dated 2012):
Entries after “also recorded” stand apart in the source; their conditions may differ.

Legend:
Assay type in all cases: in vivo, rat
[1] = test system: corneal epithelial tight junctions; assay: Corneal tight junction permeability by surface biotinylation after benzalkonium chloride
Text: Images obtained by fluorescence of the external corneal surface in the rat after ex vivo avidin-fluorescein biotinylation of the whole eye by avidin-fluorescein following cryosection (6 μm) (external side of cornea facing up)
(§1) Animals: Four groups of male Wistar rats (Janvier, Le Genest St Isle, France), weighing 300-350 g were used: BAK+sodium carmellose, BAK+ML-7, PBS+sodium carmellose, PBS+ML-7; PBS and sodium carmellose being the solvents for benzalkonium (BAK) and ML-7, respectively.
(§2) ML-7 pretreatment: Animals received a local application of ML-7 (Sigma, France) 24 hours, 12 hours and 30 minutes before chemical induction of ocular inflammation. Thus, each eye was treated with 100 μg of ML-7 in 10 μl of eye drops (sodium carmellose 4 mg/0.4 ml) or with 10 μl of eye drops alone.
(§3) Inflammation induction: Thirty minutes after the third application of ML-7 or the eye drops alone, each eye was treated with 10 μl of 0.5% benzalkonium chloride (Sigma-Aldrich, Steinheim, Germany) in PBS or 10 μl of PBS alone. After 10 minutes, the eyes of all the rats were rinsed with 250 μl of sterile water.
(§4) Eye excision: Six hours after application of benzalkonium chloride or PBS, the animals were anesthetized with pentobarbital (80 mg/kg IP) (Ceva Santé Animale, Libourne, France), sacrificed by decapitation and the eyes were immediately excised to be frozen directly or after surface biotinylation (tight junction permeability test).
Measurement of tight junction permeability—Surface biotinylation: The permeability of tight junctions in the cornea was evaluated by biotinylation of surface proteins. The chosen biotinylation reagent is water-soluble and contains an aminocaproyl spacer group, which lowers steric hindrance during avidin coupling. Immediately after excision, the eyes were incubated for 30 minutes at room temperature with gentle stirring in a solution containing sodium biotinamidohexanecarboxylate and 3-sulfó-N-hydroxysuccinimide at 1 mg/mL, in PBS (Sigma-Aldrich, Steinheim, Germany). The eyes were then rinsed three times in PBS, embedded in protective tissue freezing medium (Tissue Tek® OCT compound, Sakura Finetek, Inc., CA, USA), frozen in liquid nitrogen and stored at −80° C. Six micrometer thick slices were prepared with a cryostat and fixed in cold acetone for 10 minutes. After drying, the slices were labelled for 30 minutes in the dark with avidin D-FITC (Vector Laboratories, Inc., Burlingame, Calif., USA) diluted 250-fold in PBS-Tween containing 1% BSA, then rinsed three times for 5 minutes in PBS-Tween, in the dark. The slides were then mounted in fluorescence medium (Cappel fluorostab embedding medium, MP Biomedicals, Inc., Aurora, Ohio, USA) and examined under a Nikon Eclipse 90 i fluorescence microscope equipped with a Nikon DXM1200F digital camera. The images were analyzed with Nikon Lucia image analysis software release 4.8. As no significant differences in corneal thickness were observed between the different experimental groups (102±10 μm, 110±9 μm, 115±13 μm and 124±8 μm for BAK+sodium carmellose, BAK+ML-7, PBS+sodium carmellose and PBS+ML-7 groups, respectively), the depth of fluorescence labelling reflects the permeability of external corneal epithelial tight junctions to the biotinylation reagent.

male Wistar rats [2] = assay: Ocular inflammation induced by corneal instillation of P48/80: total MPO activity in the whole eye; settings: ML-7 1 mg/kg IP, two pretreatments the day before and one two hours before instillation
Description: FIG. 1: Experimental protocol for example 1.
The corneal irritation model which was used has been validated in the rat (Allansmith et al., Acta Ophtalmol, 1989; 192S: 145-153) and in the rabbit (Bucolo et al., J. Ocul. Pharmacol, 1993; 9: 321-332).
Animals: Three groups of eight male Wistar rats (200-250 g) housed in individual cages were used. Animals were given a standard diet (UAR, Villemoisson, Epinay sur Orge) and drinking water ad libitum.
The control eye was instilled with 10 μl of 1×PBS.
(§5) Assay of myeloperoxidase activity: The eyes were excised and homogenized in phosphate buffer with the aid of a polytron. They were then subjected to three freeze/thaw cycles (liquid nitrogen/37° C. water bath). After centrifugation at 10,000 rpm for 15 min at 4° C., the pellets were resuspended in HTAB buffer and sonicated for 10 sec. After a second centrifugation, MPO activity was assayed from the supernatant in a reaction buffer containing O-dianisidine hydrochloride and 0.0005% hydrogen peroxide. The change in absorbance at 460 nm was measured on a spectrophotometer.
They were sacrificed six hours after instillation and the eyes were excised in order to assay total myeloperoxidase (MPO) activity in the whole eye (FIG. 1).

male Wistar rats [3] = assay: Polynuclear eosinophil infiltration induced by benzalkonium chloride, Direct Red count in the venous plexus region of the sclera; settings: for number of polynuclear eosinophils in the venous plexus region of the sclera after benzalkonium chloride: 10 μl of 0.5% benzalkonium chloride, after six hours
Text: Upper panel: histological images after Direct Red staining. Lower panel: eosinophil count in venous plexus of sclera, density per square mm (means±SD; n=8)
as §1, §2, §3, §4
Measurement of polynuclear eosinophil infiltration: Polynuclear eosinophil leukocytes were specifically stained with Direct Red and counted in the venous plexus region of the sclera. […] Eosinophils, stained bright pink against a light background, were counted in the venous plexus region of the sclera under a Nikon Eclipse 90 i microscope equipped with a Nikon DXM1200F digital camera. The area of the zone to be counted was determined with Nikon Lucia image analysis software release 4.8 and counts were expressed as the number of eosinophils per mm^2. […]

male Wistar rats [4] = assay: Ocular inflammation (neutrophil infiltration) induced by corneal instillation of benzalkonium chloride: total MPO activity in the eye
Description: FIG. 3: Experimental protocol for example 2. Animals received two pretreatments with ML-7 [1 mg/kg given by the intraperitoneal (IP) route] on the day before instillation of 0.1% BAK (in the morning and evening) and one pretreatment two hours before instillation. They were sacrificed six hours after rinsing and the eyes were excised in order to assay MPO activity.
The benzalkonium salt (BAK) corneal irritation model has been widely used in both in vitro and in vivo studies. The protocol is based on an in vitro study (Xu et al., 2000) adapted to in vivo conditions in the rat after preliminary tests to adjust times and concentrations.
Animals: Male Wistar rats (200-250 g) housed in individual cages were used. Animals were given a standard diet (UAR, Villemoisson, Epinay sur Orge) and drinking water ad libitum.
Inflammation induction: Inflammation was induced by instillation in the eye of 10 μl of 0.1% BAK solution (1 mg/ml). The control eye was instilled with 10 μl of 1×PBS. Ten minutes after instillation, the eyes were rinsed with 1 ml of sterile water.
as §5, with “in” for “from”
Experimental protocol: Animals received two pretreatments with ML-7 (1 mg/kg IP) on the day before instillation of 0.1% BAK (morning and evening) and one pretreatment two hours before instillation. They were sacrificed six hours after rinsing and the eyes were excised in order to assay total myeloperoxidase (MPO) activity (FIG. 3).

| corneal thickness ([1]; BAK+ML-7 group) | corneal thickness ([1]; PBS+ML-7 group) | corneal thickness ([1]; BAK+sodium carmellose group) | number of polynuclear eosinophils in the venous plexus region of the sclera after benzalkonium chloride (male Wistar rats [3]) | number of polynuclear eosinophils in the venous plexus region of the sclera after benzalkonium chloride (male Wistar rats [3]; listed as BAK) | total MPO activity in the eye after benzalkonium chloride (male Wistar rats [4]; 10 μl of 0.1% BAK, rinsed after 10 minutes, after six hours) | increase in total MPO activity after benzalkonium chloride (male Wistar rats [4]; versus baseline 8.2±1.9 U/g.protein, after six hours) | Molecule | effect of ML-7 on the BAK-induced increase in diffusion and thickening of the fluorescent zone ([1]; local pretreatment, 100 μg ML-7 per eye, 24 hours, 12 hours and 30 minutes before BAK) | effect of ML-7 on the P48/80-induced increase in MPO activity (male Wistar rats [2]) | effect of ML-7 on benzalkonium chloride-induced polynuclear eosinophil infiltration (male Wistar rats [3]; local application, 100 μg ML-7 in 10 μl eye drops, 24 hours, 12 hours and 30 minutes before BAK) | effect of ML-7 on the benzalkonium chloride-induced increase in MPO activity (male Wistar rats [4]; ML-7 1 mg/kg IP, two pretreatments the day before and one two hours before instillation) | effect of benzalkonium chloride on corneal epithelial tight junctions (fluorescent penetration) ([1]; 10 μl of 0.5% benzalkonium chloride, after six hours) |
| --- | --- | --- | --- | --- | --- | --- | --- | --- | --- | --- | --- | --- |
| 110±9 μm | 124±8 μm | – | – | – | – | – | O=S(=O)(c1cccc2c(I)cccc12)N1CCCNCC1 [ML-7, 1-(5-iodonaphthalene-1-sulfonyl)-1H-hexahydro-1,4-diazepine] | suppressed | prevented; also recorded: inhibited | significantly inhibited | suppressed; also recorded: inhibited | – |
| – | – | 102±10 μm | highly significant increase | highly significant | 26.4±7.2 U/g.protein | 321% | benzalkonium chloride | – | – | – | – | opening of corneal epithelial tight junctions |
